Test results published in the supplement of paper PMC10627819.

Experiments:
B. subtilis 168 [1] = experiment: fitness (endpoint OD595 vs no drug) (fraction); higher = more growth
How it was run: (§1)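 Volumes were 30 µl per well, or 55 µl for S. pneumoniae, in 384-well plates inoculated at OD595 0.01. Media were TSB, LB Lennox or CY at 37 °C, and OD595 was read every 30 min for 14 h with first-reading background subtraction. Fitness is the ratio of optical density at stationary-phase entry to the robust mean of no-drug controls. That ratio is capped at 1.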

S. pneumoniae D39V [2] = experiment: as above
How it was run: as §1

B. subtilis 168 [3] = experiment: Bliss interaction score (quartile over a dose matrix) (fitness difference); higher = more antagonism (negative = synergy)
How it was run: (§2)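 Growth was read as OD595 when cultures entered stationary phase, and each value was divided by the plate's robust no-drug mean and capped at 1. This normalised ratio is the fitness value, and fitness for each single drug came from the combination data. The Bliss score subtracts the expected fitness, taken as the product, from the observed fitness and is given as quartiles across technical, biological and donor/recipient replicates.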

S. aureus DSM 20231 = experiment: as above
How it was run: as §2

S. aureus Newman = experiment: as above
How it was run: as §2

S. pneumoniae D39V [4] = experiment: as above
How it was run: as §2
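Throughout, for Bliss interaction score (quartile over a dose matrix): first quartile when negative (synergy) and third quartile when positive (antagonism).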

CCC[C@@H]1C[C@@H](C(=O)N[C@@H]([C@H]2O[C@H](SC)[C@H](O)[C@@H](O)[C@H]2O)[C@@H](C)O)N(C)C1 [Lincomycin] + CN[C@@H]1[C@H](O[C@H]2[C@H](O[C@H]3[C@H](O)[C@@H](O)[C@H](N=C(N)N)[C@@H](O)[C@@H]3N=C(N)N)O[C@@H](C)[C@]2(O)C=O)O[C@@H](CO)[C@H](O)[C@H]1O [Streptomycin]
fitness
Conditions	first compound 0.1 µg/mL	first compound 0.2 µg/mL	first compound 0.215 µg/mL	first compound 0.4 µg/mL	first compound 0.43 µg/mL	first compound 0.8 µg/mL	first compound 0.86 µg/mL
B. subtilis 168 [1], partner 2 µg/mL	0.935	0.913	–	0.9	–	–	–
B. subtilis 168 [1], partner 8 µg/mL	–	–	–	0.0442	–	–	–
S. pneumoniae D39V [2], partner 2 µg/mL	–	–	0.768	–	0.681	–	0.231
S. pneumoniae D39V [2], partner 4 µg/mL	–	0.699	0.784	0.627	0.686	0.305	0.284
S. pneumoniae D39V [2], partner 8 µg/mL	–	0.588	0.796	0.539	0.667	0.203	0.195

fitness, S. pneumoniae D39V [2], one replicate
Conditions	first compound 0.2 µg/mL	first compound 0.4 µg/mL	first compound 0.8 µg/mL
partner 2 µg/mL	0.759	0.7	0.421
partner 16 µg/mL	0.509	0.369	0.0724

Conditions	Bliss interaction score
B. subtilis 168 [3]	0.105
S. aureus DSM 20231	-0.107
S. aureus Newman	0.0761
S. pneumoniae D39V [4]	-0.129

CCC[C@@H]1C[C@@H](C(=O)N[C@@H]([C@H]2O[C@H](SC)[C@H](O)[C@@H](O)[C@H]2O)[C@@H](C)O)N(C)C1 [Lincomycin] + CO[C@@H]1[C@@H](OC(N)=O)[C@@H](O)[C@H](Oc2ccc3c(O)c(NC(=O)c4ccc(O)c(CC=C(C)C)c4)c(=O)oc3c2C)OC1(C)C [Novobiocin]
fitness, B. subtilis 168 [1]
Conditions	first compound 0.1 µg/mL	first compound 0.2 µg/mL	first compound 0.4 µg/mL
partner 0.0125 µg/mL	0.889	0.971	0.899
partner 0.025 µg/mL	0.879	0.894	0.845
partner 0.05 µg/mL	0.905	0.932	0.902

fitness, B. subtilis 168 [1], one replicate
Conditions	first compound 0.1 µg/mL	first compound 0.2 µg/mL	first compound 0.4 µg/mL	first compound 0.8 µg/mL	first compound 1.6 µg/mL
partner 0.1 µg/mL	≥ 1	0.995	0.976	–	–
partner 0.125 µg/mL	–	–	0.836	0.883	0.88
partner 0.2 µg/mL	0.991	0.956	≥ 1	–	–
partner 0.25 µg/mL	–	–	0.809	0.848	0.819
partner 0.5 µg/mL	–	–	0.569	0.563	0.594

Conditions	Bliss interaction score
B. subtilis 168 [3]	-0.0587
S. aureus DSM 20231	0.104
S. aureus Newman	0.191
S. pneumoniae D39V [4]	-0.0884

O=C1CN(/N=C/c2ccc([N+](=O)[O-])o2)C(=O)N1 [Nitrofurantoin] + CC1=C\[C@@H](O)CC(=O)Cc2nc(co2)C(=O)N2CCC=C2C(=O)O[C@H](C(C)C)[C@H](C)/C=C/C(=O)NC\C=C\1 [Virginiamycin M1]
fitness, S. pneumoniae D39V [2]
Conditions	first compound 1.285 µg/mL	first compound 2 µg/mL	first compound 2.57 µg/mL	first compound 4 µg/mL	first compound 8 µg/mL
partner 0.5 µg/mL	0.99	–	0.955	–	–
partner 1 µg/mL	0.98	–	0.962	–	–
partner 2 µg/mL	0.972	0.867	0.949	0.879	0.872

fitness, S. pneumoniae D39V [2], one replicate
Conditions	partner 0.15 µg/mL	partner 0.3 µg/mL	partner 0.5 µg/mL	partner 1 µg/mL	partner 2 µg/mL
first compound 2 µg/mL	0.911	0.875	0.99	0.988	–
first compound 4 µg/mL	0.914	0.886	0.967	0.957	–
first compound 5.14 µg/mL	–	–	0.917	0.972	≥ 1
first compound 8 µg/mL	0.888	0.897	0.918	0.855	–

Conditions	Bliss interaction score
B. subtilis 168 [3]	0.129
S. aureus DSM 20231	0.0559
S. aureus Newman	0.0574
S. pneumoniae D39V [4]	0.084

CC[C@H]1OC(=O)[C@H](C)[C@@H](O[C@H]2C[C@@](C)(OC)[C@@H](O)[C@H](C)O2)[C@H](C)[C@@H](O[C@@H]2O[C@H](C)C[C@H](N(C)C)[C@H]2O)[C@](C)(OC)C[C@@H](C)C(=O)[C@H](C)[C@@H](O)[C@]1(C)O [Clarithromycin] + CCC(C)C1C(=O)NC(=C)C(=O)NC(C(=O)NC(CSCC(C(=O)N1)NC(=O)/C(=C/C)/NC(=O)C(C(C)CC)N)C(=O)NC2C(SCC(NC(=O)CNC(=O)C3CCCN3C2=O)C(=O)NC(CCCCN)C(=O)NC4C(SCC(NC(=O)CNC(=O)C(NC(=O)C(NC(=O)C(NC(=O)CNC4=O)C)CC(C)C)CCSC)C(=O)NC(CC(=O)N)C(=O)NC(CCSC)C(=O)NC(CCCCN)C(=O)NC5C(SCC6C(=O)NC(C(=O)NC(CSC(C(C(=O)N6)NC(=O)C(NC5=O)C)C)C(=O)NC(CO)C(=O)NC(C(C)CC)C(=O)NC(CC7=CN=CN7)C(=O)NC(C(C)C)C(=O)NC(=C)C(=O)NC(CCCCN)C(=O)O)CC8=CN=CN8)C)C)C)CC(C)C [Nisin]
fitness, S. pneumoniae D39V [2], one replicate, main component drawn
Conditions	first compound 0.007812 µg/mL	first compound 0.01562 µg/mL	first compound 0.03125 µg/mL
partner 1.6 µg/mL	0.0546	0.105	0.0716
partner 3.2 µg/mL	0.0468	0.0811	0.0837
partner 6.4 µg/mL	0.0495	0.123	0.0731

S. pneumoniae D39V [2], main component drawn
Conditions	fitness
first compound 0.0625 µg/mL, partner 0.4275 µg/mL	0.704
first compound 0.0625 µg/mL, partner 1.71 µg/mL	0.0947
first compound 0.07 µg/mL, partner 1.6 µg/mL	0.0167
first compound 0.07 µg/mL, partner 3.2 µg/mL	0.0245
first compound 0.07 µg/mL, partner 6.4 µg/mL	0.0168
first compound 0.125 µg/mL, partner 0.4275 µg/mL	0.233
first compound 0.125 µg/mL, partner 0.855 µg/mL	0.118
first compound 0.125 µg/mL, partner 1.71 µg/mL	0.0991
first compound 0.14 µg/mL, partner 1.6 µg/mL	0.019
first compound 0.14 µg/mL, partner 3.2 µg/mL	0.0272
first compound 0.14 µg/mL, partner 6.4 µg/mL	0.0323
first compound 0.25 µg/mL, partner 0.4275 µg/mL	0.0872
first compound 0.25 µg/mL, partner 0.855 µg/mL	0.0757
first compound 0.25 µg/mL, partner 1.71 µg/mL	0.0969
first compound 0.28 µg/mL, partner 1.6 µg/mL	0.0103
first compound 0.28 µg/mL, partner 3.2 µg/mL	0.0421
first compound 0.28 µg/mL, partner 6.4 µg/mL	0.0171

main component drawn
Conditions	Bliss interaction score
B. subtilis 168 [3]	0.0377
S. aureus DSM 20231	-0.0781
S. aureus Newman	-0.0489
S. pneumoniae D39V [4]	0.0379

CCC[C@@H]1C[C@@H](C(=O)N[C@@H]([C@H]2O[C@H](SC)[C@H](O)[C@@H](O)[C@H]2O)[C@H](C)Cl)N(C)C1 [Clindamycin] + O=C1CN(/N=C/c2ccc([N+](=O)[O-])o2)C(=O)N1 [Nitrofurantoin]
fitness, S. pneumoniae D39V [2]
Conditions	first compound 0.0125 µg/mL	first compound 0.015 µg/mL	first compound 0.025 µg/mL	first compound 0.03 µg/mL	first compound 0.05 µg/mL	first compound 0.06 µg/mL
partner 1.285 µg/mL	–	0.848	–	0.692	–	0.51
partner 2 µg/mL	0.583	–	0.302	–	0.0691	–
partner 2.57 µg/mL	–	0.886	–	0.708	–	0.445
partner 4 µg/mL	0.503	–	0.224	–	0.0581	–
partner 8 µg/mL	0.339	–	0.126	–	0.0351	–

S. pneumoniae D39V [2], partner 5.14 µg/mL, one replicate
Conditions	fitness
first compound 0.015 µg/mL	0.809
first compound 0.03 µg/mL	0.685
first compound 0.06 µg/mL	0.319

Conditions	Bliss interaction score
B. subtilis 168 [3]	-0.113
S. aureus DSM 20231	-0.0327
S. aureus Newman	-0.127
S. pneumoniae D39V [4]	-0.173
